Laboratory results published in patent US20060205755A1, “Novel farnesyl protein transferase inhibitors as antitumor agents” (Schering Corporation, priority 2004, published 2006).

How the values were obtained:
[1] = target: purified human farnesyl protein transferase (Homo sapiens, UniProt P49354+P49356); assay: FPT activity: transfer of [3H] farnesyl from [3H] farnesyl pyrophosphate to biotinylated H-ras peptide (SPA); format: biochemical; conditions: 0.03 nM enzyme, 37° C., 60 minutes
Procedure: FPT activity was determined by measuring the transfer of [^3H] farnesyl from [^3H] farnesyl pyrophosphate to a biotinylated peptide derived from the C-terminus of H-ras (biotin-CVLS). The reaction mixture contains: 50 mM Tris pH7.7, 5 mM MgCl2, 5 μM Zn^++, 5 mM DTT, 0.1% Triton-X, 0.05 μM peptide, 0.03 nM purified human farnesyl protein transferase, 0.180 μM [^3H] farnesyl pyrophosphate, plus the indicated concentration of tricyclic compound or vehicle control in a total volume of 100 μl. The reaction was incubated in a Vortemp shaking incubator at 37° C., 45 RPM for 60 minutes and stopped with 150 μl of 0.25 M EDTA containing 0.5% BSA and 1.3 mg/ml Streptavidin SPA beads. Radioactivity was measured in a Wallach 1450 Microbeta liquid scintillation counter. Percent inhibition was calculated relative to the vehicle control.

Human tumor cells = assay: Soft Agar Assay (anchorage-independent growth, colony count); format: cell-based; conditions: colony outgrowth 10-16 days at 37° C.
Procedure: Anchorage-independent growth is a characteristic of tumorigenic cell lines. Human tumor cells can be suspended in growth medium containing 0.3% agarose and an indicated concentration of a farnesyl transferase inhibitor. The solution can be overlayed onto growth medium solidified with 0.6% agarose containing the same concentration of farnesyl transferase inhibitor as the top layer. After the top layer is solidified, plates can be incubated for 10-16 days at 37° C. under 5% CO2 to allow colony outgrowth. After incubation, the colonies can be stained by overlaying the agar with a solution of MTT (3-[4,5-dimethyl-thiazol-2-yl]-2,5-diphenyltetrazolium bromide, Thiazolyl blue) (1 mg/mL in PBS). Colonies can be counted and the IC50's can be determined.

Row | SMILES | IC50 [1] | IC50 (Human tumor cells)
1 | Cn1cncc1C(NC(=O)OC1(C)CC1)C1=Cc2cccnc2C(=C2CCN(C(=O)OC3(C)CC3)CC2)c2ccc(Cl)cc21 (centres unmarked) [Example 2] | 0.9 nM | 
2 | Cn1cncc1C(NC(=O)OC1(C)CC1)C1=Cc2cccnc2C(O)(C2CCN(C(=O)OC3(C)CC3)CC2)c2ccc(Cl)cc21 (centres unmarked) [Example 6] |  | ≥ 9 nM
3 | Cn1cncc1C(NC(=O)OC1(C)CC1)C1=Cc2cccnc2C(C2CCN(C(=O)OC3(C)CC3)CC2)c2ccc(Cl)cc21 (single isomer, unassigned) [Example 4] |  | ≥ 9 nM
4 | Cn1cncc1C(NC(=O)OC1(C)CC1)C1=Cc2cccnc2C(O)(C2CCN(C(=O)OC(C)(C)C)CC2)c2ccc(Cl)cc21 (centres unmarked) [Example 5] |  | ≥ 9 nM
5 | Cn1cncc1C(NC(=O)OC1(C)CC1)C1=Cc2cccnc2C(=C2CCN(C(=O)OC(C)(C)C)CC2)c2ccc(Cl)cc21 (centres unmarked) [Example 1] |  | ≥ 9 nM
